# Active and inactive are the calls of the source. The rule behind the calls is not given here.
# Target: Genome polyprotein (Coxsackievirus B3 (strain Nancy), UniProt P03313)
# Experiment: Inhibition of human coxsackievirus B3 protease 3C expressed in Escherichia coli (BL21) using fluorogenic-Dabcyl-KEALFQGPPQFE-Edans as substrate after 1 hr by FRET assay
# Details: not given
# Sequence of Genome polyprotein (Coxsackievirus B3 (strain Nancy), UniProt P03313) (P03313 1541-1723 limits assumed): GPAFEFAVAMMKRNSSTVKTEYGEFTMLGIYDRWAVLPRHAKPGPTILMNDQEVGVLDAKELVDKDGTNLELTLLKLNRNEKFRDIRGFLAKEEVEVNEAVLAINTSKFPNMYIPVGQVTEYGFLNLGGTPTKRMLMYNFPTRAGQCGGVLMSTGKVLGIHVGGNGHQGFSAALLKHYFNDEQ
row,SMILES,IC50 [nM]
1,Cc1ccc(NC2=C(Cl)C(=O)c3nc(C)[nH]c3C2=O)cc1,830
2,Cc1[nH]c2ccccc2c1C1=C(O)C(=O)c2ncccc2C1=O,1100
3,O=C1C(Sc2ccc(Cl)cc2)=C(Sc2ccc(Cl)cc2)C(=O)c2[nH]c(-c3ccncc3)nc21,570
4,O=C1C(Oc2ccc(O)cc2)=C(Oc2ccc(O)cc2)C(=O)c2ncccc21,1200
5,CN(Cc1ccccc1)CC(C(=O)c1ccc(Cl)cc1)n1cnc2ccccc2c1=O (centres undefined),6200
6,Cc1[nH]c2ccccc2c1C1=C(Cl)C(=O)c2ncccc2C1=O,730
7,O=C(CCN1CCc2ccccc2CC1)c1ccc2c(c1)OCCO2,11100
8,Cc1nc2c([nH]1)C(=O)C(Cl)=C(Nc1cc(F)cc(F)c1)C2=O,900
9,Cc1nc2c([nH]1)C(=O)C(Nc1ccc(C(F)(F)F)cc1)=C(Cl)C2=O,840
10,Cc1ccc(N/N=C/c2c(O)cc(C)oc2=O)cc1,5400
11,O=C1C(Cl)=C(Nc2cccc(Cl)c2)C(=O)c2[nH]c(-c3ccncc3)nc21,550
12,CC1(C)CC(=O)C2=C(C1)OC(=O)C2(Nc1ccccc1)C(F)(F)F (centres undefined),8300
13,O=C1C=CC(=O)N1c1ccc(OC(F)(F)C(F)F)c(N2C(=O)C=CC2=O)c1,1200
14,O=C1C(Cl)=C(Cl)C(=O)c2ncccc21,630
15,COc1ccc(OC2=C(Cl)C(=O)c3ccccc3C2=O)c([N+](=O)[O-])c1,1700
16,O=C1C(Sc2ccccc2)=C(Sc2ccccc2)C(=O)c2[nH]c(-c3ccncc3)nc21,790
17,COC(=O)/C=C/C(=O)[C@@H](NC(=O)OC(C)(C)C)C(C)C,1800

# Target: Genome polyprotein (rhinovirus B14, UniProt P03303)
# Sequence (P03303 1538-1719 limits assumed): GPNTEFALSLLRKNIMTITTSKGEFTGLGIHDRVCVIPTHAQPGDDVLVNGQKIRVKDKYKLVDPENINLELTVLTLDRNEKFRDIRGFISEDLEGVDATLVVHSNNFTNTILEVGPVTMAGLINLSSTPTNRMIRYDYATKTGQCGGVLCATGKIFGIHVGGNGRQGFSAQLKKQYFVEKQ
# Experiment: Inhibition of recombinant human rhinovirus protease 3C using fluorogenic-Dabcyl-KTSAVLQSGFRKME-Edan as substrate after 5 mins by FRET assay
# Design: species or system Human rhinovirus sp.
# Details: not given
row,SMILES,IC50 [nM]
1,Cc1nc2c([nH]1)C(=O)C(Cl)=C(Nc1cc(F)cc(F)c1)C2=O,8400
2,COc1ccc(OC2=C(Cl)C(=O)c3ccccc3C2=O)c([N+](=O)[O-])c1,850

# Target: Genome polyprotein (rhinovirus B14) (UniProt P03303)
# Sequence (P03303 whole entry): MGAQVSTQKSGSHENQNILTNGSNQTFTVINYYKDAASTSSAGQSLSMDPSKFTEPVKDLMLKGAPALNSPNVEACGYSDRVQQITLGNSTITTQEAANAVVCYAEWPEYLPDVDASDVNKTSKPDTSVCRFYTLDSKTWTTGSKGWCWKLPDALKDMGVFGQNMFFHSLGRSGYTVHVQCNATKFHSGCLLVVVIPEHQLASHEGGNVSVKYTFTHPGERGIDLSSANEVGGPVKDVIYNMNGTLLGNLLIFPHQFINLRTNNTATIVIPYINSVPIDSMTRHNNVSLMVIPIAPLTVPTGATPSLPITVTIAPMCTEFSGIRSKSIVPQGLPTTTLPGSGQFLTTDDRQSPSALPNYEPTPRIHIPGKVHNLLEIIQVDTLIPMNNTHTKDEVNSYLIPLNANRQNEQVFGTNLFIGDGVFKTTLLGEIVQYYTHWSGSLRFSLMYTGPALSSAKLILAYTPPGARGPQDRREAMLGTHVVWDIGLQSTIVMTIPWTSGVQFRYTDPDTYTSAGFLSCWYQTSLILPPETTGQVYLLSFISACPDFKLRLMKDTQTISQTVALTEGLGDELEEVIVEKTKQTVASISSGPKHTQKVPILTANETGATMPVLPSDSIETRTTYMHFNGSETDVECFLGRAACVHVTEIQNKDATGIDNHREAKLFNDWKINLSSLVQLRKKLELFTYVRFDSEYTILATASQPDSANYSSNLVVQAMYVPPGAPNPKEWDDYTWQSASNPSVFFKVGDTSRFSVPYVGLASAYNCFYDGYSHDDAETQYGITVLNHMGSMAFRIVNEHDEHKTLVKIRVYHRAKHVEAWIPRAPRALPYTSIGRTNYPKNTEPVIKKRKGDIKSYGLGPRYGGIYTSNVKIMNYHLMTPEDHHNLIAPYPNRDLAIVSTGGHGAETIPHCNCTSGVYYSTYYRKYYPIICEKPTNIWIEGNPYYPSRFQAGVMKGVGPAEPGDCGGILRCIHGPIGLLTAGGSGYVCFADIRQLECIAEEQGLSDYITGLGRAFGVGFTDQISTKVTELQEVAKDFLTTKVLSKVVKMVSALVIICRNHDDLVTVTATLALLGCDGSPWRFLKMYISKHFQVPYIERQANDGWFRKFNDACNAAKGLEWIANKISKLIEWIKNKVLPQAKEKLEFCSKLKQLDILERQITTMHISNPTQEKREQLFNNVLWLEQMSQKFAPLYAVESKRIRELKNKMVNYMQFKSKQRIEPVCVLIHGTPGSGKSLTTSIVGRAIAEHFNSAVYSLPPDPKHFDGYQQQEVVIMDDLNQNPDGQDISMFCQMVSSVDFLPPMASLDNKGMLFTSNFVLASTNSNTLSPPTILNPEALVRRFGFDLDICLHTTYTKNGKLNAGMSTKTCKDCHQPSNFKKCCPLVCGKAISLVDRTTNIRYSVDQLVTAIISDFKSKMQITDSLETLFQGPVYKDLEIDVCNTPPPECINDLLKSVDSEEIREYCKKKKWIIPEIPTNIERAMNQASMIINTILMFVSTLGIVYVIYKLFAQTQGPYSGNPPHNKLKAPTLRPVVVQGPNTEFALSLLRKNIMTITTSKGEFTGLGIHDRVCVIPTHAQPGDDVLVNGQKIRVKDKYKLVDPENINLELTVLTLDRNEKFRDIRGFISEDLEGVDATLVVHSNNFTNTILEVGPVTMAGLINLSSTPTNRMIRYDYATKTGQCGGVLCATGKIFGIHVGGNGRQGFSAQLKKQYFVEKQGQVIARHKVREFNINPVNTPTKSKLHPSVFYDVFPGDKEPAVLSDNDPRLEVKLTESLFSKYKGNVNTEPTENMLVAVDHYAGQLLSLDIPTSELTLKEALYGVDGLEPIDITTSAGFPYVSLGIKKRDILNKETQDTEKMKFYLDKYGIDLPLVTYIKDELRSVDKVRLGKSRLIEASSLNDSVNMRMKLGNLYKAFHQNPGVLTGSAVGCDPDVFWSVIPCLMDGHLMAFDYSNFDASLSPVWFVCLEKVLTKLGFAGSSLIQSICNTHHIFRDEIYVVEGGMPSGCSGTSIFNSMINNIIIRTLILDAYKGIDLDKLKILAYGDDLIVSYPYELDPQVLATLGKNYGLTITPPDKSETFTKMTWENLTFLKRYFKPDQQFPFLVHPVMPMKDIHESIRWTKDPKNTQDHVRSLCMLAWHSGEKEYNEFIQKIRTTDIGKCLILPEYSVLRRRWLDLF
# Experiment: Inhibition of human rhinovirus protease 3C catalytic activity assessed as suppression of target protein cleavage at 5 uM after 30 mins by SDS-PAGE analysis
# Details: Human rhinovirus sp.
row,SMILES,inhibition
1,COc1ccc(OC2=C(Cl)C(=O)c3ccccc3C2=O)c([N+](=O)[O-])c1,Active

# Target: Genome polyprotein (rhinovirus B14) (UniProt P03303)
# Experiment: Inhibition of human rhinovirus protease 3C catalytic activity assessed as suppression of target protein cleavage at 50 uM after 30 mins by SDS-PAGE analysis
# Details: Human rhinovirus sp.
row,SMILES,inhibition
1,Cc1nc2c([nH]1)C(=O)C(Cl)=C(Nc1cc(F)cc(F)c1)C2=O,Active

# Target: Genome polyprotein (Coxsackievirus B3 (strain Nancy)) (UniProt P03313)
# Sequence (P03313 whole entry): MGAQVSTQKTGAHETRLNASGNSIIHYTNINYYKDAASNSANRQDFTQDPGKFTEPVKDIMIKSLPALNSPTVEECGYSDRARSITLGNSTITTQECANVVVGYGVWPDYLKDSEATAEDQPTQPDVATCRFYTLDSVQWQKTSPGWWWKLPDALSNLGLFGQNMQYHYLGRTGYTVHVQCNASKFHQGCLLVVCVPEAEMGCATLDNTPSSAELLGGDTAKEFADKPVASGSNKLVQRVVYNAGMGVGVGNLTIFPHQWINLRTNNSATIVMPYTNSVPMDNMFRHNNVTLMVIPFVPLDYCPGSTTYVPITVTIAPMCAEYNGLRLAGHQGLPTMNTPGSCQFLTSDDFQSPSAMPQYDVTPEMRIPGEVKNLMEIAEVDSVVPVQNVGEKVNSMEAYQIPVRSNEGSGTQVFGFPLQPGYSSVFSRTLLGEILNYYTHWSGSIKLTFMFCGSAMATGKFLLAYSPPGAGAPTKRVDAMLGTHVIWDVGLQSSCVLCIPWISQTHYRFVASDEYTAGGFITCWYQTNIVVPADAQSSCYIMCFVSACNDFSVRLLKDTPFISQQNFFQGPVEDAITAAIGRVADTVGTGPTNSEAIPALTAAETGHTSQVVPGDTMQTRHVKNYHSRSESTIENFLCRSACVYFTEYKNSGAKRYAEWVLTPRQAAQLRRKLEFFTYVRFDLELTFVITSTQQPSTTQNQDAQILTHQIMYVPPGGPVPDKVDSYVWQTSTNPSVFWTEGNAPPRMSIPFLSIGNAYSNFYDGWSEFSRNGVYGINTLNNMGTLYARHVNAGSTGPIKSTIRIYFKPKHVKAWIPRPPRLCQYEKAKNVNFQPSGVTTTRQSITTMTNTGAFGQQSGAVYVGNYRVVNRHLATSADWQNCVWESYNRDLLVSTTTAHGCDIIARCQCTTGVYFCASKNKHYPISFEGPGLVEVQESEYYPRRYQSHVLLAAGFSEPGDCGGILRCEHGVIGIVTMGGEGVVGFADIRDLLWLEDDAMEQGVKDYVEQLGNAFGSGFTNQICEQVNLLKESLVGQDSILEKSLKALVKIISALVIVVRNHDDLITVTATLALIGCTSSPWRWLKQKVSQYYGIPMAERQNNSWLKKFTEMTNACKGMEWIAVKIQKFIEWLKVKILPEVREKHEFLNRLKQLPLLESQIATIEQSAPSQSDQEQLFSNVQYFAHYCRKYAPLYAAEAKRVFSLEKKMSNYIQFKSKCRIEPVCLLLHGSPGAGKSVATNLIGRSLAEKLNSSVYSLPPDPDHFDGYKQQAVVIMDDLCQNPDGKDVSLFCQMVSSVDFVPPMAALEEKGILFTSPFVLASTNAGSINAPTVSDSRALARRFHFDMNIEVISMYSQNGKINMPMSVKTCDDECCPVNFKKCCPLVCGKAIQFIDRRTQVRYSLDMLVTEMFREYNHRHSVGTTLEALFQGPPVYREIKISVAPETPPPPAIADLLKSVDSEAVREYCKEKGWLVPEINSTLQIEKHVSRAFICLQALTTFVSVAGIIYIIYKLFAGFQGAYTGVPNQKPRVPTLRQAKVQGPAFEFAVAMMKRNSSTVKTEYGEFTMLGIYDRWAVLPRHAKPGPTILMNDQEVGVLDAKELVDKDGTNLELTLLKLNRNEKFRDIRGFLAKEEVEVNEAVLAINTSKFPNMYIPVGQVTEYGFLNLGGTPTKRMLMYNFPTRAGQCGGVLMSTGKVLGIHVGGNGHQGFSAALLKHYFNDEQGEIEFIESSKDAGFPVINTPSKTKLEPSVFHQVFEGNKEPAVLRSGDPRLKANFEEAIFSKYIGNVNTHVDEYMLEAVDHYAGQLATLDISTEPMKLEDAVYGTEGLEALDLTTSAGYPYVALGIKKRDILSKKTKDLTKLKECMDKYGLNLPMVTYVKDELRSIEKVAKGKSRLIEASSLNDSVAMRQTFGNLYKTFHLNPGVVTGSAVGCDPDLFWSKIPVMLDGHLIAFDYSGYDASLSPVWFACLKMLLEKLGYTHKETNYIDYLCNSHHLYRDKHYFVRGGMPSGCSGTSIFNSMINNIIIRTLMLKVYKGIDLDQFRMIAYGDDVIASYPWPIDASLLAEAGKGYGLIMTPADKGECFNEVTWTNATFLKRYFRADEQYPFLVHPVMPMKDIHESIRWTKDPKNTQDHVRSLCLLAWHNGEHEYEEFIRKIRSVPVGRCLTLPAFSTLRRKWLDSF
# Experiment: Inhibition of human coxsackievirus B3 protease 3C expressed in Escherichia coli (BL21) at 40 uM using fluorogenic-Dabcyl-KEALFQGPPQFE-Edans as substrate after 1 hr by FRET assay
# Details: not given
row,SMILES,inhibition [%]
1,CN(Cc1ccccc1)CC(C(=O)c1ccc(Cl)cc1)n1cnc2ccccc2c1=O (centres undefined),> 64
2,O=C(CCN1CCc2ccccc2CC1)c1ccc2c(c1)OCCO2,> 64
3,Cc1nc2c([nH]1)C(=O)C(Cl)=C(Nc1cc(F)cc(F)c1)C2=O,> 64
4,Cc1ccc(N/N=C/c2c(O)cc(C)oc2=O)cc1,> 64
5,CC1(C)CC(=O)C2=C(C1)OC(=O)C2(Nc1ccccc1)C(F)(F)F (centres undefined),> 64
6,O=C1C=CC(=O)N1c1ccc(OC(F)(F)C(F)F)c(N2C(=O)C=CC2=O)c1,> 64
7,COc1ccc(OC2=C(Cl)C(=O)c3ccccc3C2=O)c([N+](=O)[O-])c1,> 64
8,COC(=O)/C=C/C(=O)[C@@H](NC(=O)OC(C)(C)C)C(C)C,> 64
